Literature values as cited in patent US9078925B2, “Pharmaceutical semi-solid composition of isotretinoin” (GALEPHAR PHARMACEUTICAL RESEARCH, INC., priority 2012, dated 2015).
Where two headings read alike, the source gives them in different places.

Experiments:
[1] = not given; remark: listed apart in the source

CC1=C(/C=C/C(C)=C/C=C/C(C)=C\C(=O)O)C(C)(C)CCC1 [Isotretinoin, 13-cis retinoic acid]
solubility in water: poorly soluble in water
bioavailability after an oral intake ([1]; fasted conditions): 25%
bioavailability after an oral intake ([1]; fed conditions): 40%
time to reach steady-state concentrations ([1]; of treatment): 1 week
